Assays:
LSD1 = LSD1 (Homo sapiens, UniProt O60341); experiment: Cellular thermal shift assay (CETSA), LSD1; assay type: cell-based; set-up: endogenous in cells; host or cells: THP-1; settings: THP-1 cells, 1 h; 4 μM (methods, Figure 2), Figure S14 legend 500 nM
Description: (§1) THP-1 cells, 1 × 10^7 cells at a density of 1 × 10^6 cells/mL, were treated with 4 μM of test compounds (1 h, 37 °C, 5% CO2). Cells were centrifuged, and the pellet was resuspended with 1 × Phosphate Buffer Saline (Gibco, Grand Island, NY, USA, #10010023) containing 1 × Protease Inhibitor Cocktail (Cell Signaling Technology, Beverly, MA, USA, #5871) and 1 mM phenylmethylsulfonyl fluoride (PMSF, Sigma Aldrich, St. Louis, MO, USA, #10837091001). The suspension volume was divided equally and heated for 3 min at 43–64 °C in a T100 Thermal Cycler (Bio-rad, Hercules, CA, USA). For protein extraction, cells were snap-frozen using liquid nitrogen, thawed twice (25 °C, 1 min), then centrifuged (20,000× g, 15 min, 4 °C). Following centrifugation, protein containing supernatants were denatured at 70 °C for 10 min and loaded on SDS-PAGE gels (Bio-Rad, Hercules, CA, USA, 161-0317). After electrophoresis (100 V and 60 min), proteins were transferred onto PVDF membrane (Bio-Rad #1620177) at 200 mA for 180 min and immunoblotted with primary antibodies (1:10,000 dilution for anti-LSD1 Antibody ab129195 [EPR6825], 1:1000 dilution for Anti-HDAC6 Antibody CST 7558, 1:1000 dilution for Anti-HDAC1 Antibody ab53091, 1:1000 dilution for Anti-HDAC8 Antibody ab187139, 1:5000 dilution for Anti-beta Actin Antibody ab8227) overnight at 4 °C. The next day, membranes were incubated with HRP-conjugated secondary antibodies (1:5000 dilution for Abcam, Cambridge, UK, ab205718) for 1 h at room temperature. The signal was detected with BIORAD Chemi-Doc XRS+ System and by using Immobilon Forte Western HRP Substrate (WBLUF0500).

[1] = biological target: T1, Human recombinant C-ter-His-FLAG-HDAC1 (Homo sapiens, UniProt Q13547); experiment: HDAC-Glo I/II enzyme assay, HDAC1; assay type: biochemical; settings: ± standard error, three independent measurements
T1 construct: His (C); FLAG (C); purchased BPS Bioscience 50051

Jurkat = experiment: Cell Titer-Glo cell viability, Jurkat; assay type: cell-based; settings: Homo sapiens, 120 h, ± standard deviation, three biological repeats, read-out: IC50 cell viability Jurkat
THP-1 = experiment: Cell Titer-Glo cell viability, THP-1; assay type: cell-based; settings: Homo sapiens, THP-1; 120 h, ± standard deviation, three biological repeats; read-out: IC50 cell viability THP-1
HDAC6 = biological target: T2, HDAC6 (Homo sapiens, UniProt Q9UBN7); experiment: Cellular thermal shift assay (CETSA), HDAC6; assay type: cell-based; settings: THP-1 cells, 1 h; 4 μM (methods, Figure 2), Figure S14 legend 500 nM
T2 construct: endogenous in cells; host or cells: THP-1
T2 sequence (Q9UBN7 1-1215): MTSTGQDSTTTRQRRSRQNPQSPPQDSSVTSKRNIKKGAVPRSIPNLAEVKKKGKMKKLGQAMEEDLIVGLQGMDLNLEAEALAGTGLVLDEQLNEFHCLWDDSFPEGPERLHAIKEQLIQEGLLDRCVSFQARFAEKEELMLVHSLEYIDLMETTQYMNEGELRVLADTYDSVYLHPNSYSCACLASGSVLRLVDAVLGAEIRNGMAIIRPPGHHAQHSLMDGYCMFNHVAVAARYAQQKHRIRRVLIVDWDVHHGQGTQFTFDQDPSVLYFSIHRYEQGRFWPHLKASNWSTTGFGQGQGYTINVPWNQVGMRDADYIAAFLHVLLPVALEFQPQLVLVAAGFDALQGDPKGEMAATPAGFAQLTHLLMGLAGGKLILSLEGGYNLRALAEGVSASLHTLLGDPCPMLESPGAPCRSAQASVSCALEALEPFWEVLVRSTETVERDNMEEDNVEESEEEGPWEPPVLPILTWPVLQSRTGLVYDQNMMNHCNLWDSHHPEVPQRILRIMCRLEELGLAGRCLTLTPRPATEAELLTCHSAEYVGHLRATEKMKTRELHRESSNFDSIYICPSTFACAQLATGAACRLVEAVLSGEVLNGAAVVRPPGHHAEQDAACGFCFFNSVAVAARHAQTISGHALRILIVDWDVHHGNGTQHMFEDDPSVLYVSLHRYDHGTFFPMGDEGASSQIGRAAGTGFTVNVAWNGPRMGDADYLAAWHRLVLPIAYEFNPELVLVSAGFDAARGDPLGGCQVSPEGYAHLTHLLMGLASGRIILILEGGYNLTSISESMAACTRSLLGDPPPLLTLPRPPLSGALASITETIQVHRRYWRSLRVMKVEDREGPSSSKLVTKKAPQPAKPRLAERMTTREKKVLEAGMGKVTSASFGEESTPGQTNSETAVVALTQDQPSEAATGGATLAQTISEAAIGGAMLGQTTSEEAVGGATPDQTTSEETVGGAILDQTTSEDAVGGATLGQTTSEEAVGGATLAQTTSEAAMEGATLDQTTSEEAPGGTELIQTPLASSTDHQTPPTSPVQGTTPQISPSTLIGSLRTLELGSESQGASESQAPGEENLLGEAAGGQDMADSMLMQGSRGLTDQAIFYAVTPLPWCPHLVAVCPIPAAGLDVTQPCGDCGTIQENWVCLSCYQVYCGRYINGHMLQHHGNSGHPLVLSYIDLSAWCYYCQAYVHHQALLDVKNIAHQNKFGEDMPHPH
Description: as §1

HDAC8 = biological target: T3, HDAC8 (Homo sapiens, UniProt Q9BY41); experiment: Cellular thermal shift assay (CETSA), HDAC8; assay type: cell-based; settings: THP-1 cells, 1 h; 4 μM (methods, Figure 2), Figure S14 legend 500 nM
T3 construct: endogenous in cells; host or cells: THP-1
T3 sequence (Q9BY41 1-377): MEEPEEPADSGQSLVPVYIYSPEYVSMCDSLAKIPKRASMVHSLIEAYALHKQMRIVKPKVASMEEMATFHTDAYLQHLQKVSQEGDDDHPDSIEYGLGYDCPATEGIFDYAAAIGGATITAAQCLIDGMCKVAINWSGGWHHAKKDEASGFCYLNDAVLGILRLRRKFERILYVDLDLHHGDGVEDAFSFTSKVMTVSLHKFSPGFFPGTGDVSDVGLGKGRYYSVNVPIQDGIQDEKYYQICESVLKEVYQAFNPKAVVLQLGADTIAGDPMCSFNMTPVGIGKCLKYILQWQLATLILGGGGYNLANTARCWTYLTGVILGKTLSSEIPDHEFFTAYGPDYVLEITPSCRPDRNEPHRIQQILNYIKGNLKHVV
Description: THP-1 cells, 1 × 10^7 cells at a density of 1 × 10^6 cells/mL, were treated with 4 μM of test compounds (1 h, 37 °C, 5% CO2). Cells were centrifuged, and the pellet was resuspended with 1 × Phosphate Buffer Saline (Gibco, Grand Island, NY, USA, #10010023) containing 1 × Protease Inhibitor Cocktail (Cell Signaling Technology, Beverly, MA, USA, #5871) and 1 mM phenylmethylsulfonyl fluoride (PMSF, Sigma Aldrich, St. Louis, MO, USA, #10837091001). The suspension volume was divided equally and heated for 3 min at 43–64 °C in a T100 Thermal Cycler (Bio-rad, Hercules, CA, USA). For protein extraction, cells were snap-frozen using liquid nitrogen, thawed twice (25 °C, 1 min), then centrifuged (20,000× g, 15 min, 4 °C). Following centrifugation, protein containing supernatants were denatured at 70 °C for 10 min and loaded on SDS-PAGE gels (Bio-Rad, Hercules, CA, USA, 161-0317). […] The signal was detected with BIORAD Chemi-Doc XRS+ System and by using Immobilon Forte Western HRP Substrate (WBLUF0500).

C-terminal His-tag-HDAC8 = biological target: T4, C-terminal His-tag-HDAC8 (Homo sapiens, UniProt Q9BY41); experiment: HDAC-Glo I/II enzyme assay, HDAC8; assay type: biochemical; settings: ± standard error, three independent measurements
T4 construct: His (C); purchased BPS Bioscience 50008
T4 sequence (Q9BY41 1-377): T3 sequence (Q9BY41 1-377)

MOLM-13 = experiment: Cell Titer-Glo cell viability, MOLM-13; assay type: cell-based; settings: Homo sapiens, MOLM-13; 120 h, ± standard deviation, three biological repeats; read-out: IC50 cell viability MOLM-13

T1 sequence (Q13547 whole entry): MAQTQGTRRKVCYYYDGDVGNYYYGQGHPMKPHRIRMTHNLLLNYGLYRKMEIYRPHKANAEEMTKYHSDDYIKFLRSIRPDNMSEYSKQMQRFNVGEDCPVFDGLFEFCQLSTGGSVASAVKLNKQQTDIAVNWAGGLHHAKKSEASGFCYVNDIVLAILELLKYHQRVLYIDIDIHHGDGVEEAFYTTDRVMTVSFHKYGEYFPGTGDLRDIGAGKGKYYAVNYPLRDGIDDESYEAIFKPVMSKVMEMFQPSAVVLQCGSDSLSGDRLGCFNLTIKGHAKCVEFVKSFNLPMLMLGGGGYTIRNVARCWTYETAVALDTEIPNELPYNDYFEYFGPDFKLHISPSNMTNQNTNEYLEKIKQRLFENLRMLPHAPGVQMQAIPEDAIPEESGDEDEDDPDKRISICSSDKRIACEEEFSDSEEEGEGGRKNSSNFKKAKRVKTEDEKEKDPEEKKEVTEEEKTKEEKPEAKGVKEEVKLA

SMILES	thermal stabilization of LSD1 (CETSA) (LSD1)	IC50 [1]	IC50 (Jurkat)	IC50 (THP-1)	thermal stabilization of HDAC6 (CETSA) (HDAC6)	thermal stabilization of HDAC8 (CETSA) (HDAC8)	IC50 (C-terminal His-tag-HDAC8)	IC50 (MOLM-13)
O=C(NO)c1ccc(CN2CCC(CN[C@@H]3C[C@H]3c3ccccc3)CC2)cc1 (relative stereo) [iDual]	increased thermal stability	5.31 ± 0.25 µM	15.5 ± 1.4 µM	16.3 ± 5.4 µM	increased thermal stability	not significantly stabilized	0.29 ± 0.04 µM	1.3 ± 0.4 µM
O=C(NO)c1ccc(CN2CCC(CNC3(c4ccccc4)CC3)CC2)cc1 [iHDAC6]	–	7.57 ± 0.29 µM	10.7 ± 0.8 µM	9.7 ± 2.4 µM	stabilized HDAC6 only	–	0.45 ± 0.07 µM	6.7 ± 1.6 µM
